Molecules are shown by their SMILES. Structures can show the parent of a compound that is named as a salt. Bounds are passed on as bounds.

In general, IC50 refers to the concentration that inhibits the measured activity by half.

This experiment deals with Sodium-dependent serotonin transporter (Rattus norvegicus) (UniProt P31652). The experiment can be described thus: Inhibition of binding of [3H]imipramine to imipramine receptor in rat brain.
Chain of Sodium-dependent serotonin transporter (Rattus norvegicus) (P31652 whole entry, looked up): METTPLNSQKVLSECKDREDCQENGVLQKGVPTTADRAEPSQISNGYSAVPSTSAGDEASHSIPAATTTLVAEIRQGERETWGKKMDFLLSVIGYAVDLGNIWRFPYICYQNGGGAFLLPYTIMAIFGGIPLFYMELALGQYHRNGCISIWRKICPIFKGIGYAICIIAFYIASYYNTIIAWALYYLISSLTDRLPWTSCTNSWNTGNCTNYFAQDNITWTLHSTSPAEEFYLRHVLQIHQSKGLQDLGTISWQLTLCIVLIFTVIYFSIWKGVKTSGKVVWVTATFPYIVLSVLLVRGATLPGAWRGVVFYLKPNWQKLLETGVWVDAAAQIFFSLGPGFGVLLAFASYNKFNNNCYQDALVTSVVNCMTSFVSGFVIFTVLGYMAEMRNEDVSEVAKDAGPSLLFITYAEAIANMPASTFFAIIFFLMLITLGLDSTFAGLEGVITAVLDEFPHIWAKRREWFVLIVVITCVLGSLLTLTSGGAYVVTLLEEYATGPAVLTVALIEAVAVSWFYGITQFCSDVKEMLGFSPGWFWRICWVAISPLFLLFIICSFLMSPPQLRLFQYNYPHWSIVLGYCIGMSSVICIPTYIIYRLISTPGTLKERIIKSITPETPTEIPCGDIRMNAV
Regarding `CN(C)CC(c1cccc(Cl)c1)C1(O)CCCCC1` (stereo not given), the IC50 came out at 130 nM.
`CN(C)CC(c1ccccc1O)C1(O)CCCCC1` (stereo not given) displayed a concentration for half-maximal inhibition (IC50) of over 10000 nM.
Compound `COc1ccc(C(CN(C)C)C2(O)CCCC2)cc1` (stereo not given) registered an IC50 of 126 nM.
To `COc1ccc(C(CN(C)C)C2(O)CCCCCC2)cc1` (stereo not given) belongs 300 nM.
As to `CN(C)CC(c1ccc([N+](=O)[O-])cc1)C1(O)CCCCC1` (stereo not given), the IC50 stood at 250 nM.
Regarding `COc1cccc(C(CN(C)C)C2(O)CCCC2)c1` (stereo not given), the IC50 stood at 95 nM.
In turn, `CN(C)CC(c1cccc(Br)c1)C1(O)CCCCC1` (stereo not given) returned an IC50 of 52 nM.
`CN(C)CC(c1ccc(Cl)c(Cl)c1)C1(O)CCCCC1` (stereo not given) returned an IC50 of 37 nM. This IC50 and that of the compound before are within 1.5-fold of each other.
Next, `CN(C)CC(c1ccc(Br)cc1)C1(O)CCCCC1` (stereo not given): 62 nM; `COc1ccc(C(CN(C)C)C2(O)CCCCC2)cc1Br` (stereo not given): 190 nM.
With `CN(C)CC(c1ccc(Br)cc1)C1(O)CCC1` (stereo not given), the IC50 amounted to 435 nM.
`CN(C)CC(c1ccc(C(F)(F)F)cc1)C1(O)CCCCC1` (stereo not given) yielded an IC50 of 88 nM. This IC50 is about 4.9-fold lower than that of the compound before.
To `COc1ccc(C(CN(C)C)C2(O)CCCCC2)cc1OC` (stereo not given) belongs 700 nM; to `Cc1ccc(C(CN(C)C)C2(O)CCCCC2)cc1` (stereo not given), 205 nM.
For the compound `CN(C)CC(c1ccc(N)cc1)C1(O)CCCCC1` (stereo not given), the IC50 is over 10000 nM.
For the compound `COc1ccc(C(CN2CCOCC2)C2(O)CCCCC2)cc1` (stereo not given), the IC50 was over 10000 nM.
In turn, `COc1ccc(C(CN2CCCC2)C2(O)CCCCC2)cc1` (stereo not given) showed an IC50 of over 10000 nM.
The compound `CN(C)CC(c1ccccc1Br)C1(O)CCCCC1` (stereo not given) yielded an IC50 of 260 nM.
In turn, `COc1ccc(C(CN)C2(O)CCCCC2)cc1` (stereo not given) registered an IC50 of 900 nM.
Regarding `COc1ccc(C(CN(C)C)C2(O)CCCCCCC2)cc1` (stereo not given), the IC50 is over 10000 nM.
As to `COc1ccc(C(CN2CCCCC2)C2(O)CCCCC2)cc1` (stereo not given), the IC50 was over 10000 nM.
To `CN(C)CC(c1ccccc1Cl)C1(O)CCCCC1` (stereo not given) [1-(1-(2-chlorophenyl)-2-(dimethylamino)ethyl)cyclohexanol] belongs 523 nM; to `COc1cccc(C(CN(C)C)C2(O)CCCCC2)c1` (stereo not given) [1-(2-(dimethylamino)-1-(3-methoxyphenyl)ethyl)cyclohexanol], 150 nM.
Next, `CN(C)CC(c1ccc(Cl)cc1)C1(O)CCCCC1` (stereo not given) [1-[1-(4-Chloro-phenyl)-2-dimethylamino-ethyl]-cyclohexanol (HCl)]: 100 nM; `CNCC(c1ccc(OC)cc1)C1(O)CCCCC1` (stereo not given) [N-Desmethylvenlafaxine]: 300 nM.

The values are drawn from BindingDB's records for doi:10.1021/jm00172a035 (Wyeth-Ayerst Research, 1990).
